Measurements reported in ChEMBL document CHEMBL3885881, “DrugMatrix”.

Species on record: Rattus norvegicus
Test: DrugMatrix - Regimen: Daily Repeat
Type: toxicity, organism-based, Sprague-Dawley
Parameters: regimen Daily Repeat, gender Male, age 6-8 weeks
Conditions: in vivo, po, 2 mg/kg, route oral GAVAGE, dose level High, vehicle 100 % WATER; for ABSOLUTE BASOPHIL / ABSOLUTE EOSINOPHIL / ABSOLUTE LYMPHOCYTE / ABSOLUTE MONOCYTE / ABSOLUTE SEGMENTED NEUTROPHIL / BASOPHIL / EOSINOPHIL / ERYTHROCYTE COUNT / HEMATOCRIT / HEMOGLOBIN / LEUKOCYTE COUNT / LYMPHOCYTE / MEAN CORPUSCULAR HEMOGLOBIN / MEAN CORPUSCULAR HEMOGLOBIN CONCENTRATION / MEAN CORPUSCULAR VOLUME / MONOCYTE / NEUTROPHIL / NUCLEATED RED BLOOD CELLS / PLATELET COUNT: tissue Blood
[1] = 72 h, tissue Plasma, time 3 day
[2] = 120 h, tissue Plasma, time 5 day

## O=[Se]([O-])[O-].[Na+].[Na+] [SODIUM SELENITE]
72 h, time 3 day
  ABSOLUTE BASOPHIL: 0 CELLS/uL
  ABSOLUTE EOSINOPHIL: 0 CELLS/uL
  ABSOLUTE LYMPHOCYTE: 12300.67 CELLS/uL
  ABSOLUTE MONOCYTE: 763.67 CELLS/uL
  ABSOLUTE SEGMENTED NEUTROPHIL: 2435.67 CELLS/uL
  BASOPHIL: 0%
  EOSINOPHIL: 0%
  ERYTHROCYTE COUNT: 6.2 x10E6/uL
  HEMATOCRIT: 38.47%
  HEMOGLOBIN: 14.1 G/DL
  LEUKOCYTE COUNT: 15.5 x10E3/uL
  LYMPHOCYTE: 80%
  MEAN CORPUSCULAR HEMOGLOBIN: 22.77 pg
  MEAN CORPUSCULAR HEMOGLOBIN CONCENTRATION: 36.7 G/DL
  MEAN CORPUSCULAR VOLUME: 62.07 fL
  MONOCYTE: 5%
  NEUTROPHIL: 15%
  NUCLEATED RED BLOOD CELLS: 0 /100WBC
  PLATELET COUNT: 701.33 x10E3/uL
[1]
  ALANINE AMINOTRANSFERASE: 84.33 u/L
  ALBUMIN: 4.57 G/DL
  ALKALINE PHOSPHATASE: 506.33 u/L
  ASPARTATE AMINOTRANSFERASE: 143.67 u/L
  BLOOD UREA NITROGEN: 15.67 mg/dL
  CARBON DIOXIDE: 24 mmol/L
  CHLORIDE: 102.33 MEQ/L
  CHOLESTEROL: 121.33 mg/dL
  CREATININE: 0.18 mg/dL
  GLUCOSE: 145.67 mg/dL
  LACTATE DEHYDROGENASE: 321.67 u/L
  LIPASE: 9 u/L
  PHOSPHORUS: 12.8 mg/dL
  POTASSIUM: 5.73 MEQ/L
  SODIUM: 146 MEQ/L
  TOTAL BILIRUBIN: 0.23 mg/dL
  TOTAL PROTEIN: 6.53 G/DL
  URIC ACID: 1.43 mg/dL
120 h, time 5 day
  ABSOLUTE BASOPHIL: 0 CELLS/uL
  ABSOLUTE EOSINOPHIL: 0 CELLS/uL
  ABSOLUTE LYMPHOCYTE: 10507.33 CELLS/uL
  ABSOLUTE MONOCYTE: 251 CELLS/uL
  ABSOLUTE SEGMENTED NEUTROPHIL: 875 CELLS/uL
  BASOPHIL: 0%
  EOSINOPHIL: 0%
  ERYTHROCYTE COUNT: 5.43 x10E6/uL
  HEMATOCRIT: 33.4%
  HEMOGLOBIN: 12.4 G/DL
  LEUKOCYTE COUNT: 11.63 x10E3/uL
  LYMPHOCYTE: 90.33%
  MEAN CORPUSCULAR HEMOGLOBIN: 22.87 pg
  MEAN CORPUSCULAR HEMOGLOBIN CONCENTRATION: 37.17 G/DL
  MEAN CORPUSCULAR VOLUME: 61.53 fL
  MONOCYTE: 2%
  NEUTROPHIL: 7.67%
  NUCLEATED RED BLOOD CELLS: 0 /100WBC
  PLATELET COUNT: 896.33 x10E3/uL
[2]
  ALANINE AMINOTRANSFERASE: 56.33 u/L
  ALBUMIN: 4.77 G/DL
  ALKALINE PHOSPHATASE: 396 u/L
  ASPARTATE AMINOTRANSFERASE: 80.67 u/L
  BLOOD UREA NITROGEN: 12.33 mg/dL
  CARBON DIOXIDE: 33.33 mmol/L
  CHLORIDE: 98.33 MEQ/L
  CHOLESTEROL: 86.33 mg/dL
  CREATININE: 0.14 mg/dL
  GLUCOSE: 141 mg/dL
  LACTATE DEHYDROGENASE: 84 u/L
  LIPASE: 8.33 u/L
  PHOSPHORUS: 13.2 mg/dL
  POTASSIUM: 6.3 MEQ/L
  SODIUM: 145.1 MEQ/L
  TOTAL BILIRUBIN: 0.2 mg/dL
  TOTAL PROTEIN: 6.87 G/DL
